Data published in the supplement of paper PMC4723716.
Structures can show the parent of a compound that is named as a salt.

Tested on: Plasmodium falciparum NF54 gametocytes
Details: assay protocol: SaLSSA, 384, incubation time: 72 h
Summary of the method: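 In 384-well plates, P. falciparum NF54 gametocytes at each stage (I–V) were treated in duplicate with compound dilutions for 72 hr at 37°C under low oxygen, using either a serum-free one-step or a serum-containing two-step assay. Surviving gametocytes were stained with MitoTracker Red CMXRos, counted by high-content imaging and normalised to the plate mean of vehicle wells. A standard logistic regression model was used to fit IC50.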

[1] = gametocyte stage: Stage I Dose Response IC50 (µM)
[2] = gametocyte stage: Stage II Dose Response IC50 (µM)
[3] = gametocyte stage: Stage III Dose Response IC50 (µM)
[4] = gametocyte stage: Stage IV Dose Response IC50 (µM)
[5] = gametocyte stage: Stage V Dose Response IC50 (µM)

Measured: IC50 of gametocyte viability

COc1cc(Cc2cnc(N)nc2N)cc(OC)c1OC [Trimethoprim]
> 12.5 µM: [1] | [2] | [3] | [4] | [5]

CCC[C@@H]1C[C@@H](C(=O)N[C@@H]([C@H]2O[C@H](SC)[C@H](O)[C@@H](O)[C@H]2O)[C@H](C)Cl)N(C)C1 [clindamycin]
> 12.5 µM: [1] | [2] | [3] | [4] | [5]

C[C@]12CC[C@H](OS(=O)(=O)O)CC1=CC[C@@H]1[C@@H]2CC[C@]2(C)C(=O)CC[C@@H]12 [dehydroepiandrosterone sulphate]
> 12.5 µM: [1] | [2] | [3] | [4] | [5]

O=CN(O)CCCP(=O)([O-])O [fosmidomycin mono sodium]
> 12.5 µM: [1] | [2] | [3] | [4] | [5]

CC(C)NC(=N)NC(=N)Nc1ccc(Cl)cc1 [proguanil hydrochloride/1.14]
> 12.5 µM: [1] | [2] | [3] | [4] | [5]

CCc1nc(N)nc(N)c1-c1ccc(Cl)cc1 [pyrimethamine]
> 12.5 µM: [1] | [2] | [3] | [4] | [5]
